# According to patent US20240269066A1, “USE OF CYP450 INHIBITOR IN INHIBITING OR KILLING MITES AND TREATING XEROPHTHALMIA” (PRECVISION BIOTECHNOLOGIES LTD., priority 2021, published 2024):
# Structures can show the parent of a compound that is named as a salt.
# Test system: Demodex
# Experiment: Acaricidal experiment: in vitro culture of Demodex with compound solutions, time to death of mites
# Conditions: 50 μl, 20° C., 96% humidity
# Method: In this study, Demodex was collected from patients diagnosed with ocular Demodex infection. Those meeting the inclusion criteria would be enrolled after an informed conversation and signing an informed consent form.
# Demodex detection was performed according to the conventional eyelash microscopic examination method. 3 eyelashes were extracted from each eyelid, and a total of 12 eyelashes were extracted. The extracted eyelashes were immediately placed on a glass slide, and one piece of each three eyelashes was placed under an ordinary light microscope for observation. Demodex at all stages were counted and classified according to morphology (specific criteria were: Demodex brevis at a head-to-body ratio of 1:1 and Demodex folliculorum at a head-to-body ratio of 1:3 to 1:4). Only adults that were fully exposed to the field of view were taken as subjects (larvae and eggs were not considered as subjects since they were more fragile in early life).
# Based on the above detection of Demodex, 50 μl of different solutions were added to each slide, and the survival of the worms was observed every 1 hour. The death was judged by observing whether the worms were active (body, limbs, or the like) under a microscope. Two skilled Demodex-related experimenters observed and judged separately during the experiment. If the judgment results were different, the third skilled experimenter was asked to make an independent judgment. The culture in vitro was performed in a climate chamber at 20° C. and 96% humidity. Slides were transported in a humid chamber under observation and the solution was added appropriately to ensure high humidity before vacuoles appeared on solution evaporation.
Compound,Average survival time of mites (compound 10 mg/mL in 0.9% NaCl) [h],also measured
C[C@@H]1CC[C@H]2C(C)(C)[C@H]3C[C@@]12CC[C@@]3(C)O [Cedrol],<20.04 ± 1.84,
CCc1ccc(C)c2ccc(C)c-2c1 [Chamazulene],11.49 ± 3.93,
CN/C(=N/CCSCc1nc[nH]c1C)NC#N [Cimetidine],53,
COc1cc(N)c(Cl)cc1C(=O)NC1CCN(CCCOc2ccc(F)cc2)CC1OC (stereo not drawn) [Cisapride],72,
COC(=O)[C@H](c1ccccc1Cl)N1CCc2sccc2C1 [Clopidogrel Bisulfate],23,
Clc1ccccc1C(c1ccccc1)(c1ccccc1)n1ccnc1 [Clotrimazole],,Average survival time of mites (compound 0.3 mg/mL in 0.9% NaCl): ~33.01 h; Average survival time of mites (compound 3 mg/mL in 0.9% NaCl): ~23.63 h
COc1cc(/C=C/C(=O)CC(=O)/C=C/c2ccc(O)c(OC)c2)ccc1O [Curcumin],45,
CCOC(=O)C1=C(C)NC(C)=C(C(=O)OC)C1c1cccc(Cl)c1Cl (stereo not drawn) [Felodipine],71,
CCC(C)n1ncn(-c2ccc(N3CCN(c4ccc(OCC5COC(Cn6cncn6)(c6ccc(Cl)cc6Cl)O5)cc4)CC3)cc2)c1=O (stereo not drawn) [Itraconazole],96,
CC(=O)N1CCN(c2ccc(OCC3COC(Cn4ccnc4)(c4ccc(Cl)cc4Cl)O3)cc2)CC1 (stereo not drawn) [Ketoconazole],97,
N#Cc1ccc(C(c2ccc(C#N)cc2)n2cncn2)cc1 [Letrozole],72,
CC12CC3CC(C)(C1)CC(N)(C3)C2 [Memantine HCl],17,
COc1c2occc2cc2ccc(=O)oc12 [Methoxsalen],18,
Cc1ncc([N+](=O)[O-])n1CCO [Metronidazole],67,
CO[C@@H]1[C@H](N(C)C(=O)c2ccccc2)C[C@H]2O[C@]1(C)n1c3ccccc3c3c4c(c5c6ccccc6n2c5c31)C(=O)NC4 [Midostaurin],42,
CC(C)(O)c1ccccc1CC[C@@H](SCC1(CC(=O)O)CC1)c1cccc(/C=C/c2ccc3ccc(Cl)cc3n2)c1 [Montelukast Sodium],5,
Cc1ccccc1C(OCCN(C)C)c1ccccc1 (stereo not drawn) [Orphenadrine Citrate],4.35 ± 2.05,Average survival time of mites (compound 1 mg/mL in 0.9% NaCl): ~7.09 ± 1.44 h
Fc1ccc([C@@H]2CCNC[C@H]2COc2ccc3c(c2)OCO3)cc1 [Paroxetine],,Average survival time of mites (compound 1 mg/mL in 0.9% NaCl): 2.44 ± 2.04 h
Cc1cc(O)c(C(=O)CCC(C)C)c(=O)o1 [Pogostone],1.90 ± 1.06,
O=c1c(O)c(-c2ccc(O)c(O)c2)oc2cc(O)cc(O)c12 [Quercetin],4,
C=C[C@H]1C[N@@]2CC[C@H]1C[C@@H]2[C@@H](O)c1ccnc2ccc(OC)cc12 [Quinidine sulfate],5,Average survival time of mites (compound 1 mg/mL in 0.9% NaCl): 8.33 ± 4.02 h; Average survival time of mites (compound 5 mg/mL in 0.9% NaCl): 5.35 ± 2.09 h
CN[C@H]1CC[C@@H](c2ccc(Cl)c(Cl)c2)c2ccccc21 [Sertraline HCl],2.50 ± 1.37,Average survival time of mites (compound 1 mg/mL in 0.9% NaCl): 9.07 ± 6.72 h
Nc1ccc(S(=O)(=O)Nc2ccnn2-c2ccccc2)cc1 [Sulfaphenazole],70,
S=P(N1CC1)(N1CC1)N1CC1 [Thiotepa],22,
N[C@@H]1C[C@H]1c1ccccc1 [Tranylcypromine HCl],2.89 ± 1.08,Average survival time of mites (compound 1 mg/mL in 0.9% NaCl): 7.44 ± 6.07 h; Average survival time of mites (compound 3 mg/mL in 0.9% NaCl): 5.66 ± 0.91 h; Average survival time of mites (compound 30 mg/mL in 0.9% NaCl): 2.24 ± 1.32 h
C[C@@H](c1ncncc1F)[C@](O)(Cn1cncn1)c1ccc(F)cc1F [Voriconazole],72,
C=C1CC[C@@]23C[C@@H]1C(C)(C)[C@@H]2CC[C@H]3C [β-cedrene],42.57 ± 8.89,
alpha-bisabolol,7.60 ± 2.60,
